Results as given in patent US11180487B2, “Substituted cyanoindoline derivatives as NIK inhibitors” (Janssen Pharmaceutica NV, priority 2016, dated 2021).
Read-outs that look alike come from different tables or passages of the source.

Tests used:
[1] = tested on: KMS12-BM (NIK WT) multiple myeloma cells; assay: Antiproliferative activity on KMS12-BM multiple myeloma cells (CellTiter-Glo, 96 hr), Biological Assay C; format: cell-based, human; settings: averaged values, read-out: KMS-12 Proliferation inhibition (IC50 (nM))
Method in brief: (§1)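 Growth read-out was CellTiter-Glo luminescence after 96 h compound exposure, given as percent of no-drug control after subtracting a blank of cells read at dosing. Compounds ran as 9-point serial 1:3 dilutions in 0.3% DMSO, duplicate wells, on JJN-3 (15000/well) or KMS12-BM (20000/well) cells in RPMI 1640/10% FCS.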

[2] = target: recombinant human NF-kappaB-inducing kinase (NIK/MAP3K14) (Homo sapiens, UniProt Q99558); assay: Inhibition of auto-phosphorylation of recombinant human NIK/MAP3K14 activity (AlphaScreen), Biological Assay A; format: biochemical; settings: averaged values over all measurements on all batches
Method in brief: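 AlphaScreen detection with anti-phospho-IKK Ser176/180 antibody plus Protein A acceptor/glutathione donor beads after 1 h, 25 °C reaction of 0.2 nM GST-tagged kinase, 25 μM ATP and compound. Buffer: 50 mM Tris pH 7.5, MgCl2, EGTA, DTT, vanadate; 1% DMSO. IC50 fitted sigmoidally to % inhibition.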

[3] = tested on: JJN-3 (NIK translocated) multiple myeloma cells; assay: Antiproliferative activity on JJN-3 multiple myeloma cells (CellTiter-Glo, 96 hr), Biological Assay C; format: cell-based, human; settings: JJN-3 (NIK translocated) cells, averaged values, read-out: JJN-3 Proliferation inhibition (IC50 (nM))
Method in brief: as §1

[4] = tested on: P-IKKα levels in L363 (NIK translocated multiple myeloma) cells; assay: Effect of compounds on P-IKKα levels in L363 cells (Mesoscale sandwich immuno-assay), Biological Assay B; format: cell-based, human; settings: 2 hr treatment, averaged values, read-out: Inhibition of pIKKα_L-363 (IC50 (nM))
Method in brief: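 P-IKKα in lysates quantified by Mesoscale sandwich immunoassay after 2 h compound exposure in 1% DMSO, duplicate wells, 8-point 1:3 series. Human L363 cells had been preincubated 24 h with BAFF (1 μg/ml stock). Blank (10 μM ADS125117) subtracted; IC50 fitted sigmoidally to % inhibition of control.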

Sequence of recombinant human NF-kappaB-inducing kinase (NIK/MAP3K14) (Q99558 whole entry): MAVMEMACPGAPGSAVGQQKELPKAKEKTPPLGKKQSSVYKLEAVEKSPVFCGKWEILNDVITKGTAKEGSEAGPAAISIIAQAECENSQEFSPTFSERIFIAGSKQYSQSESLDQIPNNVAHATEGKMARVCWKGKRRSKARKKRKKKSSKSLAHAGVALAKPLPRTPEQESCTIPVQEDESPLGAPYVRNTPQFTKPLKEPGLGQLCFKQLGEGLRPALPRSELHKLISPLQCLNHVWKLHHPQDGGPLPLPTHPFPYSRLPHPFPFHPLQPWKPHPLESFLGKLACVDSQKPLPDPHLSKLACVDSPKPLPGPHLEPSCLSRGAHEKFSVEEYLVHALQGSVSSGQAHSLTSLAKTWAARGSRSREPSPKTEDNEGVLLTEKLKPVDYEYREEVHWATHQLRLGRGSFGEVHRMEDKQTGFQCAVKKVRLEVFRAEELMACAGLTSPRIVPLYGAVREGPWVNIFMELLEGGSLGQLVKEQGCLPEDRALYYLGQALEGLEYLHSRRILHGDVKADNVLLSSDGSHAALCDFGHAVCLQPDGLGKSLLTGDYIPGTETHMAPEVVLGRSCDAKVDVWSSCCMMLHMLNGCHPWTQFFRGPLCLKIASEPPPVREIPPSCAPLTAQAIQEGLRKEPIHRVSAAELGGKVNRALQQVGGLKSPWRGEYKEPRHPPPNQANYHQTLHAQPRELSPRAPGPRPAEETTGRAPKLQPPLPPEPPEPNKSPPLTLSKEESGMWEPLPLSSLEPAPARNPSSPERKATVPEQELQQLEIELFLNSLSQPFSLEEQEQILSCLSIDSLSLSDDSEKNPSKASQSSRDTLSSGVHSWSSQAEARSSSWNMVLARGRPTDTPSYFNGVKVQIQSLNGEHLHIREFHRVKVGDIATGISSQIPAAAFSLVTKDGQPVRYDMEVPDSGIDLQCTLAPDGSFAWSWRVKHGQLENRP

SMILES | IC50 ([1]; Homo sapiens, KMS-12-BM, 96 h) [nM] | IC50 [2] [nM] | IC50 ([3]; Homo sapiens, JJN-3, 96 h) [nM] | melting point [°C] | IC50 ([4]; Homo sapiens, L-363, 2 h) [nM] | IC50 [1] [nM] | IC50 [3] [nM] | IC50 [4] [nM]
Cc1ccc(C#N)cc1Nc1nccc(-c2cc(C#N)c3c(c2)[C@@](C)(CO)CN3)n1 [Compound 1] | – | 1.8 | – | 222 | – | 5190 | 85 | 2.2
COc1cc(S(C)(=O)=O)ccc1Nc1nccc(-c2cc(C#N)c3c(c2)[C@@](C)(CO)CN3)n1 [Compound 73] | > 10000 | 2.2 | 68 | 201 | 1.4 | – | – | –
COc1cc(N2CCC(O)CC2)c(Cl)cc1Nc1nccc(-c2cc(C#N)c3c(c2)C(C)(C)CN3)n1 [Compound 105] | ~6610 | 28.5 | 118 | > 250 | 22.9 | – | – | –
C[C@]1(CO)CNc2c(C#N)cc(-c3ccnc(Nc4cc(C#N)ccc4CCN4CC(F)C4)n3)cc21 [Compound 229] | > 10000 | 7.6 | 251 | 207 | 22.4 | – | – | –
[2H]C1([2H])OC([2H])([2H])C([2H])([2H])N(C(=O)c2cccc(Nc3nccc(-c4cc(C#N)c5c(c4)[C@@](C)(CO)CN5)n3)c2C)C1([2H])[2H] [Compound 205] | > 10000 | 6 | 162 | 201 | 11.2 | – | – | –
COCCOc1ccc(C#N)cc1Nc1nccc(-c2cc(C#N)c3c(c2)[C@@](C)(COC(C)=O)CN3)n1 [Compound 127] | > 10000 | 129 | 570 | 158 | 11.5 | – | – | –
COC(=O)c1cc(OC)c(Nc2nccc(-c3cc(C#N)c4c(c3)C(C)(C)CN4)n2)cc1Cl [Compound 106] | > 10000 | 63.1 | 1620 | 208 | 123 | – | – | –
Cc1cc(F)c(C(=O)NCC2COC2)cc1Nc1nccc(-c2cc(C#N)c3c(c2)[C@@](C)(CO)CN3)n1 [Compound 183] | > 10000 | 9.1 | 501 | 209 | 7.1 | – | – | –
Cc1ccc(C#N)cc1Nc1nccc(-c2cc(C#N)c3c(c2)[C@@](C)(COC(=O)[C@H](N)Cc2ccccc2)CN3)n1 [Compound 140] | ~9120 | 51.3 | 550 | 180 | 56.2 | – | – | –
Cc1ccc(C#N)cc1Nc1nccc(-c2cc(C#N)c3c(c2)[C@@](C)(COC(=O)CN)CN3)n1 [Compound 137] | ~10000 | 6 | 545 | 290 | 2.7 | – | – | –
Cc1cc(F)c(C(=O)NC2CCOC2)cc1Nc1nccc(-c2cc(C#N)c3c(c2)[C@@](C)(CO)CN3)n1 (single isomer, unassigned) [Compound 168] | > 10000 | 10.7 | ~1410 | 246 | 14.5 | – | – | –
CNC(=O)c1cc(Nc2nccc(-c3cc(C#N)c4c(c3)[C@@](C)(CO)CN4)n2)c(C)cc1F [Compound 155] | > 10000 | 3.5 | 467 | 218 | 7.7 | – | – | –
Cc1ccc(CN2CC(F)C2)cc1Nc1nccc(-c2cc(C#N)c3c(c2)[C@@](C)(CO)CN3)n1 [Compound 220] | > 10000 | 10.2 | 4570 | 140 | 72.4 | – | – | –
Cc1ccc(C#N)cc1Nc1nccc(-c2cc(C#N)c3c(c2)[C@@](C)(COC(=O)CC(=O)O)CN3)n1 [Compound 142b] | – | 17 | – | 214 | – | > 10000 | 977 | ~58.9
Cc1ccc(C#N)cc1Nc1nccc(-c2cc(C#N)c3c(c2)[C@@](C)(CO)CN3)n1 [Compound 131] | – | 1.3 | – | 174 | – | > 10000 | 324 | 4.7
Cc1ccc(C(=O)NCCN2CCOCC2)cc1Nc1nccc(-c2cc(C#N)c3c(c2)[C@@](C)(CO)CN3)n1 [Compound 159] | > 10000 | 5.5 | 4790 | 140 | 20.4 | – | – | –
CCC(=O)NCCCc1cc(C)c(Nc2nccc(-c3cc(C#N)c4c(c3)[C@@](C)(CO)CN4)n2)cc1C#N [Compound 172] | > 10000 | 4.8 | 65 | 193 | 2.4 | – | – | –
Cc1ccc(C#N)cc1Nc1ncnc(-c2cc(C#N)c3c(c2)[C@@](C)(CO)CN3)n1 [Compound 213] | > 10000 | 4.2 | 1070 | 304 | 5 | – | – | –
Cc1ccc(C#N)cc1Nc1nccc(-c2cc(C#N)c3c(c2)[C@@](C)(COC(=O)[C@@H](N)C(C)C)CN3)n1 [Compound 139] | ~8910 | 56.2 | 302 | 202 | 26.9 | – | – | –

Second part, the molecule after the results:

IC50 ([1]; Homo sapiens, KMS-12-BM, 96 h) [nM] | IC50 [2] [nM] | IC50 ([3]; Homo sapiens, JJN-3, 96 h) [nM] | melting point [°C] | IC50 ([4]; Homo sapiens, L-363, 2 h) [nM] | IC50 [1] [nM] | IC50 [3] [nM] | IC50 [4] [nM] | SMILES
> 10000 | 27.5 | 1950 | 284 | 38.9 | – | – | – | C[C@]1(CO)CNc2c(C#N)cc(-c3ccnc(Nc4cc(C#N)c(C5CCOCC5)cc4OCC4CC4)n3)cc21 [Compound 19]
– | 3.2 | – | 222 | 1.2 | ~246 | 14 | – | Cc1cc(C2CCCN(C)C2)c(C#N)cc1Nc1nccc(-c2cc(C#N)c3c(c2)[C@@](C)(CO)CN3)n1 (some centres unmarked) [Compound 177]
> 10000 | 4.8 | 251 | 206 | 7.8 | – | – | – | CNC(=O)c1cc(Nc2nccc(-c3cc(C#N)c4c(c3)[C@@](C)(CO)CN4)n2)c(OC2CC2)cc1F [Compound 156]
~3720 | 6.2 | 30 | 210 | 1.9 | – | – | – | Cc1c(CN2CC(F)C2)cc(C#N)cc1Nc1nccc(-c2cc(C#N)c3c(c2)[C@@](C)(CO)CN3)n1 [Compound 195]
178 | 2.6 | 32 | 249 | 42.7 | – | – | – | CN(C)Cc1cc(Nc2nccc(-c3cc(C#N)c4c(c3)[C@@](C)(CO)CN4)n2)ccc1C1CCOCC1 [Compound 236]
> 10000 | 5.5 | 170 | 162 | 21.4 | – | – | – | CC1(COc2ccc(C#N)cc2Nc2nccc(-c3cc(C#N)c4c(c3)[C@@](C)(CO)CN4)n2)COC1 [Compound 14]
> 10000 | 3.5 | 71 | 211 | 2 | – | – | – | Cc1cc(CCN2CC(F)C2)c(C#N)cc1Nc1nccc(-c2cc(C#N)c3c(c2)[C@@](C)(CO)CN3)n1 [Compound 174]
> 10000 | 9.2 | 146 | 194 | 30.9 | – | – | – | C[C@]1(CO)CNc2c(C#N)cc(-c3ccnc(Nc4cc(C#N)ccc4OCC4CC4)n3)cc21 [Compound 13]
> 10000 | 1.1 | 955 | 249 | 34.7 | – | – | – | Cc1cc(C#CCN)c(C#N)cc1Nc1nccc(-c2cc(C#N)c3c(c2)[C@@](C)(CO)CN3)n1 [Compound 171]
